This note sets out measurements from PubChem BioAssay (NCI).

Among the test systems are SF-268 CNS; A498 renal; SK-MEL-28 melanoma; NCI/ADR-RES ovarian; HS 578T breast; MDA-MB-435; ACHN renal; T-47D breast.
Common to all, as to experiment: NCI tumour cell line growth inhibition, 48 h

“And” between values parts separate entries of the source, which are not always exact repeats. Identical values can stand only once.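 Tested at 5 concentrations; 48 h exposure; 96-well plates; endpoints linearly interpolated, else capped at highest concentration. Abbreviation: GI50, concentration required for 50% inhibition of growth. TGI: total growth inhibition.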

As for `CCc1ccc(C2=NN(c3ccc(S(C)(=O)=O)cc3)C(=O)CC2)cc1`, the GI50 is 3.11 µM with SF-268 CNS; 322 nM in the assay with A498 renal; 1590 nM in the assay on SK-MEL-28 melanoma; 416 nM in the assay with NCI/ADR-RES ovarian; 977 nM in the assay with HS 578T breast; 212 nM with MDA-MB-435. For the same compound, the GI50 with ACHN renal is 8.48 µM; in the assay with T-47D breast it was 4.44 µM. Also, the TGI with SF-268 CNS was more than 100 µM; in the assay on A498 renal, 4.46 µM; with SK-MEL-28 melanoma, more than 100 µM; with NCI/ADR-RES ovarian, 2.6 µM; in the assay on HS 578T breast, 7.77 µM; with MDA-MB-435, 0.804 µM. For the same compound, the TGI was more than 100 µM with ACHN renal and 98.1 µM in the assay on T-47D breast.
As to `C=CC(C)(O)CCC1C(=C)C(O)CC2C(C)(C)CCCC12C` (centres undefined), the TGI was 38 µM with SF-268 CNS; 33.3 µM with A498 renal; 36.8 µM in the assay with SK-MEL-28 melanoma; 41.1 µM in the assay with NCI/ADR-RES ovarian; 50.3 µM in the assay with HS 578T breast; 41.8 µM with MDA-MB-435. The TGI in the assay with ACHN renal stood at 70.4 µM; in the assay on T-47D breast, 93.6 µM.
In the case of `Cc1ccc(C(=O)N2C/C(=C/c3ccccc3)C(=O)/C(=C/c3ccccc3)C2)cc1`, the GI50 in the assay on SF-268 CNS was 10.8 µM; with A498 renal it was more than 65000 nM; in the assay with SK-MEL-28 melanoma it was 8980 nM; with NCI/ADR-RES ovarian it was 27700 nM; in the assay on HS 578T breast, 4480 nM; with MDA-MB-435, 1010 nM. Further, the figures for the GI50 with ACHN renal and in the assay on T-47D breast were 5.04 µM and 15.6 µM, respectively. In addition, the TGI is more than 100 µM in the assay with SF-268 CNS; more than 100 µM in the assay with A498 renal; 68.9 µM with SK-MEL-28 melanoma; more than 100 µM in the assay with NCI/ADR-RES ovarian; 50.7 µM with HS 578T breast; 6.41 µM in the assay on MDA-MB-435. Moreover, the TGI in the assay with ACHN renal was more than 67.1 µM; with T-47D breast it was more than 100 µM.
As to `N=C(N)c1ccc(OCCCCCOc2ccc(C(=N)N)cc2)cc1`, the GI50 was 4.48 µM in the assay with SF-268 CNS; 7240 nM with A498 renal; 5460 nM in the assay on SK-MEL-28 melanoma; 27300 nM with NCI/ADR-RES ovarian; 7640 nM in the assay with HS 578T breast; 3990 nM in the assay with MDA-MB-435. In addition, the results for the GI50 in the assay on ACHN renal and with T-47D breast were 18.5 µM and 1.14 µM, respectively. Also, the TGI in the assay with SF-268 CNS was 13.6 µM and 34.2 µM and 37.7 µM; in the assay with A498 renal, more than 50 µM; in the assay with SK-MEL-28 melanoma it was 12.3 µM and 21.9 µM and 49 µM; with NCI/ADR-RES ovarian it was more than 100 µM; with HS 578T breast, 32.2 µM and 33 µM and 38.5 µM; in the assay with MDA-MB-435, 13.4 µM and 23.2 µM and 42.9 µM. The TGI with ACHN renal was > 50 µM and 79.2 µM and > 100 µM; in the assay with T-47D breast it was 13.3 µM and 37.7 µM and > 100 µM.
As to `CCC1=C(c2ccc(OC)cc2)CC[C@]2(CCNC2=O)[C@@H]1C`, the TGI with SF-268 CNS was more than 100 µM; in the assay with A498 renal it was more than 100 µM; in the assay on SK-MEL-28 melanoma, 74.1 µM; with NCI/ADR-RES ovarian, more than 92.2 µM; in the assay with HS 578T breast it was 76.2 µM; in the assay with MDA-MB-435 it was 47.2 µM. For the same compound, the TGI is 66.8 µM in the assay with ACHN renal and more than 91.1 µM in the assay on T-47D breast.
Consider `COc1ccc(C(=O)/C=C/c2ccc(OCc3ccccc3)c(OC)c2)cc1OC`, for which the GI50 with SF-268 CNS was 3.83 µM; in the assay on A498 renal it was 3240 nM; in the assay on SK-MEL-28 melanoma it was 17300 nM; in the assay on NCI/ADR-RES ovarian it was 3080 nM; in the assay with HS 578T breast, 2800 nM; in the assay with MDA-MB-435, 2970 nM. Besides, the GI50 is 4.31 µM in the assay with ACHN renal and 4.33 µM in the assay on T-47D breast. The TGI was more than 100 µM in the assay on SF-268 CNS; 25.3 µM in the assay with A498 renal; more than 100 µM in the assay on SK-MEL-28 melanoma; more than 100 µM in the assay on NCI/ADR-RES ovarian; 71.4 µM with HS 578T breast; more than 100 µM in the assay on MDA-MB-435. The TGI in the assay with ACHN renal and in the assay on T-47D breast was more than 100 µM in each case.
Consider `Cc1ccccc1CNc1c2ccccc2nc2ccccc12`, for which the GI50 was 2.67 µM in the assay with SF-268 CNS; 1420 nM in the assay with A498 renal; 2150 nM in the assay with SK-MEL-28 melanoma; 2070 nM with NCI/ADR-RES ovarian; 2340 nM with HS 578T breast; 1670 nM with MDA-MB-435. Also, the GI50 is 1.65 µM with ACHN renal and 2.08 µM in the assay with T-47D breast. Besides, the TGI with SF-268 CNS is 9.33 µM; in the assay on A498 renal it was 2.96 µM; with SK-MEL-28 melanoma, 5.02 µM; in the assay on NCI/ADR-RES ovarian, 6.16 µM; in the assay with HS 578T breast it was 5.99 µM; in the assay on MDA-MB-435, 3.18 µM. The TGI in the assay with ACHN renal worked out at 3.66 µM; in the assay with T-47D breast, 5.93 µM.
Take `CC(C)C/C(=N\NC(=O)c1ccncc1)c1cc(Cl)ccc1O`: the GI50 was 0.399 µM in the assay with SF-268 CNS; 2120 nM with A498 renal; 2610 nM with SK-MEL-28 melanoma; 289 nM in the assay on NCI/ADR-RES ovarian; 14800 nM with HS 578T breast; 682 nM with MDA-MB-435. For the same compound, the GI50 in the assay with ACHN renal is 0.157 µM; in the assay on T-47D breast it was 0.584 µM. For the same compound, the TGI is more than 76.6 µM in the assay with SF-268 CNS; 45.7 µM in the assay with A498 renal; more than 69.4 µM with SK-MEL-28 melanoma; more than 23.7 µM in the assay with NCI/ADR-RES ovarian; more than 87.1 µM with HS 578T breast; 44.9 µM in the assay with MDA-MB-435. In addition, the TGI in the assay on ACHN renal is more than 41.1 µM; with T-47D breast, 33.3 µM.
Consider `CCOC(=O)C1=C(C)N(Cc2ccc(Cl)cc2Cl)[C@]2(C#N)C(O)=C(Cl)C(Cl)=C(O)[C@]12C#N`, for which the GI50 was 42.1 µM in the assay with SF-268 CNS; more than 100000 nM in the assay on A498 renal; more than 100000 nM with SK-MEL-28 melanoma; 190 nM in the assay with NCI/ADR-RES ovarian; more than 100000 nM in the assay with HS 578T breast; more than 100000 nM in the assay with MDA-MB-435. The GI50 with ACHN renal was more than 100 µM; in the assay with T-47D breast it was 31.9 µM. Moreover, the TGI in the assay with SF-268 CNS was more than 100 µM; in the assay on A498 renal, more than 100 µM; in the assay on SK-MEL-28 melanoma it was more than 100 µM; in the assay with NCI/ADR-RES ovarian, 15.6 µM; with HS 578T breast, more than 100 µM; in the assay on MDA-MB-435, more than 100 µM. Besides, the results for the TGI in the assay on ACHN renal and with T-47D breast were more than 100 µM and 78.4 µM, respectively.
In the case of `N#Cc1cccc(C2C3=C(COC3=O)N(CCO)c3cc4c(cc32)CCC4)c1` (centres undefined), the GI50 with SF-268 CNS was 0.368 µM; with A498 renal, 41.1 nM; in the assay with SK-MEL-28 melanoma, 437 nM; in the assay with NCI/ADR-RES ovarian, 150 nM; in the assay on HS 578T breast, 141 nM; in the assay on MDA-MB-435, 17.1 nM. The GI50 with ACHN renal is 0.277 µM; in the assay with T-47D breast it was 0.271 µM. The TGI with SF-268 CNS was more than 50 µM; in the assay with A498 renal, 0.303 µM; in the assay with SK-MEL-28 melanoma it was more than 50 µM; in the assay with NCI/ADR-RES ovarian, more than 50 µM; in the assay on HS 578T breast, more than 13.5 µM; in the assay with MDA-MB-435 it was 0.0662 µM. In addition, the TGI in the assay on ACHN renal and in the assay on T-47D breast was more than 50 µM in each case.
